US11434239B2, “Aza-dihydro-acridone derivatives” (Artax Biopharma Inc., priority 2017, dated 2022)
Read-outs that look alike come from different tables or passages of the source.

Key:
[1] = target: T1, CYP1A2 (Homo sapiens, UniProt P05177); test: CYP inhibition, microsomes; type: in vitro ADME; conditions: metabolite acetaminophen
T1 construct: premixing appropriate volumes of buffer, microsomes and substrate; from tissue
T1 sequence (P05177 1-516): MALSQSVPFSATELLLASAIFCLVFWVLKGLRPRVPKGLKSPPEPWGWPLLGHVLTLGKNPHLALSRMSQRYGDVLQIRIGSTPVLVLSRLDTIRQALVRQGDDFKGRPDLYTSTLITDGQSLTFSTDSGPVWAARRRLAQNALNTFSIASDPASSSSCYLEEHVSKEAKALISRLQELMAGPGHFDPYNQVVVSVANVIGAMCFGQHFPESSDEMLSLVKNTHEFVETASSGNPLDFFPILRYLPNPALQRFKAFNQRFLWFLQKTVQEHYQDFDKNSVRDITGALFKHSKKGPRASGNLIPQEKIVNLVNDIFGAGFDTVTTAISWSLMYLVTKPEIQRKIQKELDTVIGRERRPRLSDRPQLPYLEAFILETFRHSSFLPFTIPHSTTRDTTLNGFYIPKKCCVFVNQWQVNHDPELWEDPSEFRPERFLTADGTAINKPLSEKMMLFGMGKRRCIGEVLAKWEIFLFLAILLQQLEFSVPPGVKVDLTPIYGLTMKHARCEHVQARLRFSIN
Description: (§1) For each isozyme, microsomes-buffer-substrate mixture (MBS mix) is prepared by premixing appropriate volumes of buffer, microsomes and substrate. MBS mixture (179 μL) is transferred to a 96-well reaction plate. An aliquot (1 μL) is spiked from corresponding wells of Test Item stock solution plate to reaction plate. The reaction plate is pre-incubated for 5 minutes at 37° C. Reaction is initiated by the addition of 20 μL of NADPH solution. Each experiment is performed in duplicate. Reaction plate is incubated for predetermined time at 37° C. and quenched using either 200 μL of acetonitrile (for CYP2C9, CYP2D6, CYP2C19 and CYP3A4) or 200 μL of a mixture of 70:30 1% formic acid:acetonitrile (for CYP1A2).

[2] = target: T2, CYP2C19 (Homo sapiens, UniProt P33261); test: CYP inhibition, microsomes; type: in vitro ADME; conditions: metabolite 4′-hydroxy mephenytoin, class symbols
T2 construct: premixing appropriate volumes of buffer, microsomes and substrate; from tissue
Description: as §1

[3] = target: T3, CYP2C9 (Homo sapiens, UniProt P11712); test: CYP inhibition, microsomes; type: in vitro ADME; conditions: metabolite 4-hydroxy diclofenac
T3 construct: premixing appropriate volumes of buffer, microsomes and substrate; from tissue
Description: as §1

[4] = target: T4, CYP2D6 (Homo sapiens, UniProt P10635); test: CYP inhibition, microsomes; type: in vitro ADME; conditions: metabolite dextrorphan, class symbols
T4 construct: premixing appropriate volumes of buffer, microsomes and substrate; from tissue
Description: as §1

[5] = target: T5, CYP3A4 (Homo sapiens, UniProt P08684); test: CYP inhibition, microsomes; type: in vitro ADME
T5 construct: premixing appropriate volumes of buffer, microsomes and substrate; from tissue
Description: as §1

[6] = Microsomal stability (intrinsic clearance study); type: in vitro ADME; conditions: 0.5 mg/mL protein
Description: Intrinsic clearance studies are performed individually with mouse, rat and human liver microsomes at 0.5 mg/mL protein concentration. Briefly, for protein concentration 0.5 mg/mL assay, liver microsomal protein (12.5 uL), NAPDH (50 uL) and phosphate buffer (435 uL) are co-incubated (pre-incubation) in a 96-well deep well plate in an orbital incubator (10 min, 37° C.). Reactions are initiated by the addition of 2.5 uL of test item working stock solution (100 uM). Aliquots (50 uL) are withdrawn from the reaction tube at 0, 5, 10, 20 and 30 minutes and the reaction is immediately terminated by transferring to a 96 deep well plate containing 50 uL of acetonitrile. Verapamil is used as a positive control in mouse, rat and human liver microsomes. To the quenched samples internal standard is added and vortex mixed followed by centrifugation at 4000 rpm for 10 minutes and an aliquot of supernatant is taken for LC-MS/MS analysis. Samples are analyzed by a suitable fit-for-purpose multiple reaction monitoring method developed on LC-MS/MS using and API 4000 mass spectrometer to estimate the area ratio (analyte peak area/internal standard peak area).

[7] = target: T6, hERG (Homo sapiens, UniProt Q12809); test: hERG inhibition, IKr current, patch clamp in HEK cells stably transfected with the hERG clone; type: cell-based; conditions: for inhibition at 1 µM / inhibition at 3 µM / inhibition at 10 µM / inhibition at 30 µM: human, HEK cells stably transfected with hERG; for inhibition at 1 µM: pH 7.4, 1 μM; for inhibition at 3 µM: pH 7.4, 3 μM; for inhibition at 10 µM: pH 7.4, 10 μM; for inhibition at 30 µM: pH 7.4, 30 μM; for IC50: test concentrations 1, 3, 10 and 30 μM, read-out: hERG IC 50 (IKr current)
T6 construct: expressed in transfected cells
Description: HEK cells stably transfected with the hERG clone are maintained at 37±2° C. in a 5% CO2 incubator. The cells are initially revived and grown in DMEM/F12+GlutaMAX-I medium supplemented with 9% fetal bovine serum (FBS) and antibiotics (Penicillin 100 IU/mL Streptomycin 100 μg/mL) (complete medium). Furthermore, the cells are continuously maintained and passaged in complete media in addition to the appropriate concentration of selection antibiotic (Geneticin (G418) 200 μg/mL) (Selection media). The cells are sub cultured every 2-3 days and medium is changed with complete medium at least a day before the experiment.
The cells are harvested on the day of experiment, dislodged and suspended in sterile filtered external solution (NaCl 140 mM, KCl 4 mM, MgCl2 1 mM, CaCl2 2 mM, D-Glucose monohydrate 5 mM, Hepes/NaOH 10 mM, pH 7.4, Osmolarity:298+/−5 mOsmol).
The NPC®-1 chip of the Port-a-Patch® is filled with 5 μL of internal solution (KCl 50 mM, NaCl 10 mM, KFl 60 mM, EGTA 20 mM, Hepes/KOH 10 mM, pH 7.2, Osmolarity: 285+/−5 mOsmol) and it is screwed onto the chip holder. The Faraday cage is then fixed on the chip holder, such that the external electrode is placed near to the chip aperture. 5 μL of external solution is added to the center of the aperture so that the external electrode is also in contact with the solution.
The experiment is be initiated. […] The suction automatically attracts a cell to the aperture, resulting in an increase in the chip resistance. When the cell is captured and the set threshold for the resistance is reached, the software recognizes this increase in resistance and proceeds to the next step of the sealing procedure. 20 μL of seal enhancer solution (NaCl 80 mM, KCl 4 mM, MgCl2 10 mM, CaCl2 35 mM, Hepes (Na+salt)/HCl pH 7.4, Osmolarity: 298+/−5 mOsmol) is added 2-3 times. When the threshold resistance is reached, Patch Control automatically moves to the step of improving the seal. When the desirable resistance (Rpip) is reached, whole cell mode is attained and maintained.
Finally, hERG protocol is selected to run the experiment. The seal enhancer solution is replaced with 20 μL external solution after 2-4 rinses and then the test item is added (from lower to higher concentration) and checked for current inhibition. All the experiments are performed at ambient temperature (22-25° C.).
A schematic diagram of the Pulse protocol: Cells are stimulated every 10 seconds using the following protocol. The holding potential, sweep intervals and the depolarization/repolarization potentials are furnished in the table below.
Once the stable current is attained (at least 2-5 minutes) vehicle control is added and the current measured till the stable current is achieved. 3-5 consecutive data points from the last stable current phase are considered for further analysis. […] The system performs on-line analysis for several parameters which include functions that acquire data from traces and functions that perform calculations on the results of other functions.

[8] = column CYP3A4^a (footnote a not given), class symbols, read-out: CYP IC50 CYP3A4^a
[9] = column CYP3A4^b (footnote b not given), class symbols, read-out: CYP IC50 CYP3A4^b
[10] = human liver microsomes, read-out: Microsomal stability (T½ min) Human
[11] = mouse liver microsomes, read-out: Microsomal stability (T½ min) Mouse
[12] = rat liver microsomes, read-out: Microsomal stability (T½ min) Rat
[13] = mean of two trials, read-out: Percent Inhibition Mean (%) (IKr current)
[14] = read-out: Percent Inhibition Trial I (IKr current)
[15] = read-out: Percent Inhibition Trial II (IKr current)

T5 sequence (P08684 whole entry): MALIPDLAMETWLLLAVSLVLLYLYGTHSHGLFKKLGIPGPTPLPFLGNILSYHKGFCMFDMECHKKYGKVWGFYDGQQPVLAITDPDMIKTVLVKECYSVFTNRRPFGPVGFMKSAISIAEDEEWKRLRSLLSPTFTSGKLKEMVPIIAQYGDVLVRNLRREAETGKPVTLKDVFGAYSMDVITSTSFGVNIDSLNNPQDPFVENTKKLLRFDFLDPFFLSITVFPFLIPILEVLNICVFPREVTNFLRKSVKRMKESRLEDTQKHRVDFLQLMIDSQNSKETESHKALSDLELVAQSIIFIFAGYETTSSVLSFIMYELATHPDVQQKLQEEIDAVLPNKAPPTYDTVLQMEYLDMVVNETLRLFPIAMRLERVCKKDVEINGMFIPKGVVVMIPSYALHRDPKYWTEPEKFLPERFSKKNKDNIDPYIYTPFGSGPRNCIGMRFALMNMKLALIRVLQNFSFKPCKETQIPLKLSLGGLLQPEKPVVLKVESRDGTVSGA
T6 sequence (Q12809 whole entry): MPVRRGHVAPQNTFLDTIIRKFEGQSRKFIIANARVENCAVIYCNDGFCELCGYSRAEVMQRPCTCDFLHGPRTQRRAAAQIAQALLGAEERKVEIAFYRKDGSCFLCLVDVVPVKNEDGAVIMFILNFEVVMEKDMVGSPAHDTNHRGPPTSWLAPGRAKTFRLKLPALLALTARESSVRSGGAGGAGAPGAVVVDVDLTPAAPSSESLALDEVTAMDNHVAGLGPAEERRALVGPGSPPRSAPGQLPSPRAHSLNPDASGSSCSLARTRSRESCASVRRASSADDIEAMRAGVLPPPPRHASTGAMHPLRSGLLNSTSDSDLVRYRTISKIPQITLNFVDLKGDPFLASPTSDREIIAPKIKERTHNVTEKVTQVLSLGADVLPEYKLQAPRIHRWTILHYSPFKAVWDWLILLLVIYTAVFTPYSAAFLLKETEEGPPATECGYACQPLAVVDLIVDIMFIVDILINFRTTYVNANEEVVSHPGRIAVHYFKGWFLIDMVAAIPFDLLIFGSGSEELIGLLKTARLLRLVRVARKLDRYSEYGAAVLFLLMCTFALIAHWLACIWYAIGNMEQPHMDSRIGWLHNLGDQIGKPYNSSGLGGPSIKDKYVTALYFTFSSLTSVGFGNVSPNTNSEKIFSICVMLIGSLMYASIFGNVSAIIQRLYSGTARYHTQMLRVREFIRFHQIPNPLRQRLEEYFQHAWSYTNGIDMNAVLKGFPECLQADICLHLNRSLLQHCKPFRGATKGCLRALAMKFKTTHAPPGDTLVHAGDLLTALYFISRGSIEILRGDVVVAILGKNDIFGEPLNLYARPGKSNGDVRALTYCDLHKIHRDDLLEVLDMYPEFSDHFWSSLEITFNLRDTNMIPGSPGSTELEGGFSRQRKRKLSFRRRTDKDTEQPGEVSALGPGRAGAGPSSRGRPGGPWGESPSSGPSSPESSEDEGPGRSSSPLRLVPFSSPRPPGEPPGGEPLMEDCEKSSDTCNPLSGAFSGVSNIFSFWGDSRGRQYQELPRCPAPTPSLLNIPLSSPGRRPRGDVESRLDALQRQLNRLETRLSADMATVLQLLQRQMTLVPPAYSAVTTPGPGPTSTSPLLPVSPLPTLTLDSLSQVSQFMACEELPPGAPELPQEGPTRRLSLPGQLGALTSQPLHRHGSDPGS
T4 sequence (P10635 whole entry): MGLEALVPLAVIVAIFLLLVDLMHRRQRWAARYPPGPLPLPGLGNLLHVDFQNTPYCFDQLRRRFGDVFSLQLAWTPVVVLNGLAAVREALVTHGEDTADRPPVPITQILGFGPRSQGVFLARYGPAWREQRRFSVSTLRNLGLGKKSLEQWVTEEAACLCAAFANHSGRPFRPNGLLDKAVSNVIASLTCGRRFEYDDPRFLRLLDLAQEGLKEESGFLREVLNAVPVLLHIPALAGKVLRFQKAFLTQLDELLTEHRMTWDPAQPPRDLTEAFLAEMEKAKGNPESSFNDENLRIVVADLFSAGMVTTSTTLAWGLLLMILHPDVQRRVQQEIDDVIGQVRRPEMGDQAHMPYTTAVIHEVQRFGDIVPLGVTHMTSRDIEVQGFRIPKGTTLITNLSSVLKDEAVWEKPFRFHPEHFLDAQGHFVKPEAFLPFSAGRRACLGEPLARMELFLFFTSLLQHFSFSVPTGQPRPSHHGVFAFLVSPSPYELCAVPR
T2 sequence (P33261 whole entry): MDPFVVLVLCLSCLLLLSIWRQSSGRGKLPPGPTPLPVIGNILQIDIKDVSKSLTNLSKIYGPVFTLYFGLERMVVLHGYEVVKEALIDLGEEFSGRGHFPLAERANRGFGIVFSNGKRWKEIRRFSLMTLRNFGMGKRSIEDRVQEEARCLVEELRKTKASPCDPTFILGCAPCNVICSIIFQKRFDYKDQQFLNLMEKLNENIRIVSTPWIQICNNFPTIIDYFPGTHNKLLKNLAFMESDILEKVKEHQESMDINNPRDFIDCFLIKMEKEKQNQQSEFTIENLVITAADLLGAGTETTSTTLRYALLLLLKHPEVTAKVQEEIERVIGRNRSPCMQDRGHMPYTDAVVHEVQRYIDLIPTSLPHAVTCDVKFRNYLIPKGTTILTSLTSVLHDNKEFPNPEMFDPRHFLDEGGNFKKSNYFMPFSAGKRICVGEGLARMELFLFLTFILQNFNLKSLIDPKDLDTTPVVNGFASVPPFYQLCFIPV
T3 sequence (P11712 whole entry): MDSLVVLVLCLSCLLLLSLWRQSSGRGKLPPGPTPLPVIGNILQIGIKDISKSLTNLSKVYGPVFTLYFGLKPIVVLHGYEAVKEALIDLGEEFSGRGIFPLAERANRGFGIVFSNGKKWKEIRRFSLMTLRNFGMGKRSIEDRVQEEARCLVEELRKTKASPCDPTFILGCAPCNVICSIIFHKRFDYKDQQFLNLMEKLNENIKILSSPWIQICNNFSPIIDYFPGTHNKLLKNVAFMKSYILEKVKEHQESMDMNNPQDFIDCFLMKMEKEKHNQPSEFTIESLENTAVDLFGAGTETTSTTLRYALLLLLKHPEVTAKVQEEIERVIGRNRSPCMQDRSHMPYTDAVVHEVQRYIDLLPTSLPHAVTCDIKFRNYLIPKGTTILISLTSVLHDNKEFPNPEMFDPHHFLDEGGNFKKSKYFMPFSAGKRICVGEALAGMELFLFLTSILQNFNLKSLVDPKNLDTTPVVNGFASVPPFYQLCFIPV

Row | IC50 ([1]; class symbols) | IC50 [2] | IC50 [4] | IC50 [5, 8] | half-life at 0.5 uM [6, 10] | half-life at 0.5 uM [6, 11] | half-life at 0.5 uM [6, 12] | SMILES | inhibition at 1 µM [7, 13] | inhibition at 1 µM [7, 14] | inhibition at 1 µM [7, 15] | inhibition at 3 µM [7, 13] | inhibition at 3 µM [7, 14] | inhibition at 3 µM [7, 15] | inhibition at 10 µM [7, 13] | inhibition at 10 µM [7, 14] | inhibition at 10 µM [7, 15] | inhibition at 30 µM [7, 13] | inhibition at 30 µM [7, 14] | inhibition at 30 µM [7, 15] | IC50 [7] | also measured
1 | 20 to 50 µM | 20 to 50 µM | ≤ 5 µM | > 50 µM | ≤ 30 min | 10 to 30 min | 10 to 30 min | Cn1c2c(c(=O)c3ccccc31)CN(Cc1ccccc1)CC2 [Compound I-1, 2-benzyl-5-methyl-1,2,3,4-tetrahydro(5H, 10H)-benzo(b)-1,6-naphthyridin-10-one] | 9.04% | 9.22% | 8.85% | 20.9% | 20.4% | 21.4% | 37.8% | 39.6% | 35.9% | 58.6% | 58.9% | 58.3% | 18.4 µM | IC50 ([3]; class symbols): > 50 µM; IC50 [5, 9]: > 50 µM
2 | 5 to 20 µM | ≤ 5 µM | ≤ 5 µM | ≤ 5 µM | 10 to 30 min | < 10 min | < 10 min | CN1c2ccccc2C(O)C2CN(Cc3ccccc3)CCC21 (centres unmarked) [Ia-1] | 11.4% | 12.9% | 9.88% | 21.9% | 21.3% | 22.5% | 28.9% | 29.4% | 28.3% | 54.4% | 54.8% | 54.1% | 25.7 µM | IC50 [5, 9]: 20 to 50 µM
3 | – | 5 to 20 µM | ≤ 5 µM | – | ≤ 30 min | 10 to 30 min | 10 to 30 min | O=c1c2c([nH]c3cc(F)c(F)cc13)CCN(Cc1ccccc1)C2 [Ib-22] | 4.5% | 5.62% | 3.37% | 15.3% | 16% | 14.6% | 21.4% | 23.8% | 19% | 30.1% | 34% | 26.2% | 47.3 µM | IC50 ([1]; numeric bound): > 12.5 µM; IC50 ([3]; numeric bound): > 12.5 µM; IC50 ([5]; CYP3A4^a, numeric bound, read-out: CYP IC50 CYP3A4^a): > 12.5 µM; IC50 ([5]; numeric bound, read-out: CYP IC50 CYP3A4^b): > 12.5 µM
